From patent US8193179B2, “3-amino-6-(1-amino-ethyl)-tetrahydropyran derivatives” (Actelion Pharmaceuticals, Ltd, priority 2007, dated 2012) come the findings set out here.

Common to all, as to assay type: cell-based
One assay deals with S. aureus A798. The assay can be described thus: MIC by microdilution in cation-adjusted Mueller-Hinton Broth, S. aureus A798. The following applies: strain A798, test medium pH 7.2-7.3; for MIC: Staphylococcus aureus. As for the experimental part:
(§1) These assays have been performed following the description given in “Methods for dilution Antimicrobial Susceptibility Tests for Bacteria that Grow Aerobically, 4th ed.; Approved standard: NCCLS Document M7-A4; National Committee for Clinical Laboratory Standards: Villanova, Pa., USA, 1997”. Minimal inhibitory concentrations (MICs; mg/l) were determined in cation-adjusted Mueller-Hinton Broth (BBL) by a microdilution method following NCCLS guidelines (National Committee for Clinical Laboratory Standards. Methods for Dilution Antimicrobial Susceptibility). The pH of the test medium was 7.2-7.3.
On the technique in general: Dilution methods test growth across graded concentrations, often in twofold steps.

For a further assay, the system named is P. aeruginosa A1124. The assay can be described thus: MIC by microdilution in cation-adjusted Mueller-Hinton Broth, P. aeruginosa A1124. Conditions: strain A1124, test medium pH 7.2-7.3; for MIC: Pseudomonas aeruginosa. As for the experimental part: as §1
Another assay relates to A. baumanii T6474. In words: MIC by microdilution in cation-adjusted Mueller-Hinton Broth, A. baumanii T6474. The following applies: strain T6474, test medium pH 7.2-7.3; for MIC: Acinetobacter baumannii. As for the experimental part: as §1
Setting [1] is: read-out: MIC P. aeruginosa A1124.
[2] abbreviates: read-out: MIC P. aeruginosa A1124 (further typical results, comparison with WO 2006/032466).

In brackets after ≈: the same amount, converted by molar mass. Where two headings read alike, the source gives them in different places.

As to `NC(Cc1ccnc2ccc(F)cc12)[C@@H]1CC[C@@H](NC/C=C/c2cc(F)ccc2F)CO1` (mixture of isomers) [Example 3, {(3R,6S)-6-[(1RS)-1-amino-2-(6-fluoro-quinolin-4-yl)-ethyl]-tetrahydro-pyran-3-yl}-[(E)-3-(2,5-difluoro-phenyl)-allyl]-amine], the results for the MIC in the assay on S. aureus A798, with P. aeruginosa A1124 (setting [1]) and with A. baumanii T6474 were 0.25 µg/mL, 0.5 µg/mL and 0.5 µg/mL, respectively.
As for `COc1ccc2nccc(CC(N)[C@@H]3CC[C@@H](NCc4ccc5c(n4)NC(=O)CS5)CO3)c2c1` (mixture of isomers) [Example 4, 6-({(3R,6S)-6-[(1RS)-1-amino-2-(6-methoxy-quinolin-4-yl)-ethyl]-tetrahydro-pyran-3-ylamino}-methyl)-4H-pyrido[3,2-b][1,4]thiazin-3-one], in the assay with P. aeruginosa A1124 (setting [2]), the MIC turned out to be 8 µg/mL.
For the molecule `COc1ccc2ncc(F)c(CC(N)[C@@H]3CC[C@@H](NCc4ccc5c(n4)NC(=O)CO5)CO3)c2n1` (mixture of isomers) [Example 15, 6-({(3R,6S)-6-[(1RS)-1-amino-2-(3-fluoro-6-methoxy-[1,5]naphthyridin-4-yl)-ethyl]tetrahydro-pyran-3-ylamino}-methyl)-4H-pyrido[3,2-b][1,4]oxazin-3-one], the MIC against S. aureus A798 is at most 0.031 µg/mL; in the assay with P. aeruginosa A1124 (setting [1]), 0.125 µg/mL; in the assay on A. baumanii T6474 it was at most 0.031 µg/mL.
Consider `COc1ccc2nccc(C[C@H](N)[C@@H]3CC[C@@H](NCc4ccc5c(n4)NC(=O)CS5)CO3)c2n1` [Example 8, 6-({(3R,6S)-6-[(1S)-1-amino-2-(6-methoxy-[1,5]naphthyridin-4-yl)-ethyl]-tetrahydro-pyran-3-ylamino}-methyl)-4H-pyrido[3,2-b][1,4]thiazin-3-one], for which, in the assay with P. aeruginosa A1124 (setting [2]), the MIC is 2 µg/mL (≈ 4.16 µM).
Regarding `COc1ccc2nccc(C[C@H](N)[C@@H]3CC[C@@H](NCc4ccc(C)c(F)c4)CO3)c2n1` [Example 19], the “MIC S. aureus A798” value against S. aureus A798 is listed as “≦0.031 mg/l”. The “MIC P. aeruginosa A1124” value against P. aeruginosa A1124 was found to be 2 µg/mL (≈ 4.71 µM). Moreover, in the assay on A. baumanii T6474, the “MIC A. baumanii T6474” value was 0.5 µg/mL (≈ 1.18 µM).
